Results reported in a melting point compilation (Tetko et al.).

Compound	melting point
NNc1ccc2cccc(O)c2n1	156 to 158 °C
CC(N)c1cccc(O)c1 (stereo not drawn)	166 to 168 °C
c1ccc2c(c1)ncn2C1CCCNC1 (stereo not drawn)	104 to 106 °C
CCC(CC)(CNC(=O)OC(C)(C)C)C(=O)O	130 to 132 °C
O=C(O)c1ccc(S(=O)(=O)c2ccccc2)s1	192 to 194 °C
O=C(O)c1ccc(-c2ccc(OC(F)F)cc2)s1	209 to 211 °C
Nc1cc(Cl)c(NC(=O)c2ccncc2)c(Cl)c1	233 to 235 °C
NC(=S)Cc1ccccc1	84 to 86 °C
Cc1sc2[nH]c(CCC(=O)O)nc(=O)c2c1C	249 to 251 °C
CNC(=O)Cn1ccc2ccc(N)cc21	134 to 136 °C
CN1CCOC(C(=O)c2ccc(Cl)cc2)C1 (stereo not drawn)	59 to 61 °C
COc1cc(C=O)c2c(c1)CC(C)O2 (stereo not drawn)	71 to 73 °C
CN(C(=O)CCl)C1(C#N)CCCCC1	86 to 90 °C
O=C(NC1(c2nn[nH]n2)CCCC1)c1ccccc1	228 to 230 °C
CCc1ccc(C(=O)c2cccc(S(C)(=O)=O)c2)cc1	97 to 99 °C
COc1ccc(NC(C)=O)cc1S(N)(=O)=O	220 to 222 °C
COc1cc(C(=O)Cc2nc3ccccc3n2C(F)F)cc(OC)c1OC	112 to 114 °C
O=C1Nc2c(Br)cc(F)cc2C1=O	215 to 217 °C
Cc1ccc(-c2nc(N)sc2C)s1	127 to 129 °C
O=c1cc(CO)occ1OCc1ccccc1	96 to 98 °C
COc1ccc(CCNC(N)=S)cc1	166 to 168 °C
CC(C)n1cnc2cc(C(=O)O)ccc21	216 to 218 °C
O=C(O)C1CCN(c2ccc(Cl)c(Cl)c2)C1=O (stereo not drawn)	165 to 167 °C
CCOc1ccc(Oc2ccc(S(=O)(=O)Cl)cc2)cc1	88 to 90 °C

Compound	melting point
COC(=O)c1c(O)cc(=O)n2c1CCCCC2	222 to 224 °C
CC(C)C(NC(=O)OC(C)(C)C)C(N)=NO (stereo not drawn)	182 to 184 °C
Nc1nc2cc(Cl)cc(Cl)c2o1	247 to 249 °C
COc1ccccc1CNC(=O)C(C)Cl (stereo not drawn)	113 to 115 °C
CC(=Cc1cccc(Cl)c1)C(=O)O	99 to 101 °C
CCNc1ccc(S(=O)(=O)C(F)F)cc1N	115 to 117 °C
Cc1cc(O)nc(C(C)Cl)n1 (stereo not drawn)	132 to 134 °C
CC(C)C(Br)C(=O)Nc1ccccc1F (stereo not drawn)	98 to 100 °C
CC(C(=O)O)N(C)C(=O)OCC1c2ccccc2-c2ccccc21 (stereo not drawn)	119 to 121 °C
CC(=O)Cc1ccc(-c2ccccc2)cc1	49 to 51 °C
O=C(O)c1cccc(-c2ncn[nH]2)c1	239 to 241 °C
CCC(=O)c1ccc(C(=O)O)cc1	178 to 180 °C
CC(C)Cn1c(S)nc2cc(Cl)ccc2c1=O	221 to 223 °C
Nc1cc([N+](=O)[O-])ccc1Nc1cccc(C(F)(F)F)c1	165 to 167 °C
O=C(O)c1cccc(OCc2cccnc2)c1	195 to 197 °C
Cc1cc(N)nn1-c1ccc(Cl)cc1Cl	101 to 103 °C
O=C(O)c1csc(C(=O)O)c1	279 to 281 °C
O=C1CC2(CCOC2)CN1 (stereo not drawn)	63 to 65 °C
Cc1cccc(C(=O)CC#N)c1C	56 to 58 °C
CCn1c2ccccc2c2cc(N=C=S)ccc21	118 to 120 °C
NNc1c(Cl)cc(F)cc1Cl	109 to 111 °C
CC1CCc2c(sc3nc(CCC(=O)O)[nH]c(=O)c23)C1 (stereo not drawn)	259 to 261 °C
COc1ccc(-c2nc(CO)no2)cc1	141 to 143 °C
CC1NCCn2c(C(=O)NC3CC3)ccc21 (stereo not drawn)	128 to 130 °C

Compound	melting point
CN(C1CCCCC1)S(=O)(=O)c1ccccc1N	98 to 101 °C
CCCCN(C(=O)CCl)c1c(N)n(CCC)c(=O)[nH]c1=O	229 to 231 °C
Cc1c(Cl)cc(N)cc1Cl	55 to 57 °C
O=C(O)CC(NC(=O)OCc1ccccc1)c1ccccc1 (stereo not drawn)	124 to 126 °C
COc1ccc(CC(N)=NO)cc1OC	135 to 137 °C
CC(=O)N1Cc2ccccc2CC1C(=O)O (stereo not drawn)	173 to 175 °C
COc1cc(C=CC(=O)O)ccc1OCC#N	164 to 166 °C
COc1cc(C)ccc1Oc1ccc(F)cc1N	60 to 62 °C
O=C(O)c1cnoc1-c1cccs1	198 to 200 °C
COc1ccsc1C(N)=O	147 to 149 °C
Cc1ccc(-c2cnnn2-c2ccc(C(=O)O)cc2)cc1	236 to 238 °C
Cn1cnnc1S(=O)(=O)O	170 to 172 °C
Cc1cccc2c(=O)[nH]cnc12	255 to 257 °C
O=C(CCCl)Nc1cc([N+](=O)[O-])ccc1F	84 to 86 °C
CCCC(=O)Nc1ccc(Cl)c(N)c1	96 to 98 °C
Cc1nccn1Cc1ccc(N)cc1	159 to 161 °C
COC(=O)Cc1ccc([N+](=O)[O-])s1	50 to 52 °C
O=C(O)C1CCN(S(=O)(=O)c2ccc3ccccc3c2)CC1	180 to 182 °C
CC1Oc2ccc(Cl)cc2NC1=O (stereo not drawn)	171 to 173 °C
O=C(O)c1cnn2c1CCCC2	214 to 216 °C
O=C(O)C1(c2ccc(Cl)cc2)CCOCC1	181 to 183 °C
c1nnc(C2CCNCC2)[nH]1	208 to 210 °C
CC(C)CNC(=O)N1CCCC(C(=O)O)C1 (stereo not drawn)	106 to 108 °C
Cc1nnc(N2CCCC2)c(C(N)=S)c1C	169 to 171 °C

Compound	melting point
Nc1ccncc1F	71 to 79 °C
CNS(=O)(=O)CBr	64 to 66 °C
O=C(O)c1ccc(Cl)[nH]c1=O	224 to 226 °C
Cc1ccc(S(=O)(=O)Nc2ccc(Cl)cc2)cc1N	104 to 106 °C
O=C(O)[C@@H](Cl)c1ccccc1	56 to 58 °C
CN(C)S(=O)(=O)c1ccc(Cl)c(C(=O)O)c1	181 to 183 °C
O=C(CCCl)Nc1ccc(S(=O)(=O)N2CCCC2)cc1	174 to 176 °C
CN(C)C(=O)Cc1ccc(N)cc1	97 to 99 °C
COc1ccc(C(C)=O)c2ccccc12	64 to 66 °C
CC(=O)c1cn(-c2ccccc2)nn1	102 to 104 °C
COc1ccc(C(=O)O)cc1C(C)C	164 to 166 °C
Cc1ccccc1-n1nc(-c2ccccc2)cc1N	109 to 111 °C
O=C(O)Cc1ccc(F)c(Br)c1	64 to 66 °C
COC(=O)c1c(C)[nH]c(C(=O)CCl)c1C	166 to 168 °C
CCC(C#N)NC(=O)OC(C)(C)C (stereo not drawn)	78 to 80 °C
O=C1CSC(=S)N1c1ccc(F)cc1	137 to 139 °C
Cc1c(F)cc(C(=O)O)cc1S(=O)(=O)Cl	179 to 181 °C
O=S(=O)(Cl)c1ccc(N2CCCS2(=O)=O)cc1	184 to 186 °C
Cc1csc(-c2ccc(C(=O)O)cc2)n1	208 to 210 °C
O=C(O)c1cc2occc2s1	188 to 190 °C
CC(C)(C)NC(=O)c1ccc(N)cc1	124 to 126 °C
Cc1[nH]c(N)c(C#N)c1C	149 to 151 °C
Clc1nc(-c2cccs2)nc2ccccc12	123 to 125 °C

Now from value to compound:

melting point	Compound
49 to 51 °C	CCc1cc(N)on1
193 to 195 °C	Oc1ncncc1Br
179 to 181 °C	CCc1cc(Cl)n2nc(C(=O)OC)nc2n1
123 to 125 °C	O=Cc1cccc(OCc2occc2C(=O)O)c1
145 to 147 °C	Cc1ccc(NC(=O)C=NO)cc1
191 to 193 °C	O=C(c1cc(S(=O)(=O)Cl)c[nH]1)N1CCCC1
90 to 92 °C	O=C1CNC(=O)N1CCCCl
58 to 60 °C	O=C(O)CCCc1ccc(Cl)cc1
154 to 156 °C	Fc1ccc(F)c2c(Cl)ccnc12
56 to 58 °C	COC(=O)C(Cl)c1cc(Cl)cc(Cl)c1 (stereo not drawn)
206 to 208 °C	O=C(O)C1CC(O)CN1C(=O)c1ccc(F)cc1 (stereo not drawn)
289 to 291 °C	Cc1ccccc1/C=C/c1cc(C(=O)O)c2cc(Br)ccc2n1
97 to 99 °C	Nc1cccc(-c2ccc(Cl)c(Cl)c2)c1
178 to 180 °C	O=[N+]([O-])c1ccc(Cc2nnn[nH]2)cc1
103 to 105 °C	CCC(C)(C)c1ccc(C(=O)O)cc1
63 to 65 °C	Cc1ccc(Oc2cc(C#N)ccn2)cc1C
127 to 129 °C	CCOC(=O)c1cc2c(nc1N)CCCC2
122 to 124 °C	CC(=O)c1ccc(OCC(=O)N2CCCC2)cc1
169 to 171 °C	O=C(O)c1ccc(SC2CCOC2=O)cc1 (stereo not drawn)
89 to 91 °C	CC(C)(C)C1=NN(c2ccccc2)C(=O)C1=CCl
197 to 199 °C	Cc1ccc(-c2ccc(C(=O)O)s2)o1
163 to 165 °C	Nc1nc(-c2cccs2)ns1
99 to 101 °C	OC(c1ccccc1)c1nccs1 (stereo not drawn)
69 to 71 °C	CC(C)S(=O)(=O)c1ccc(CCl)cc1

melting point	Compound
146 to 148 °C	O=C(O)c1cc(S)ccc1Br
214 to 216 °C	Cc1ccc(-c2noc(N)n2)cc1
67 to 69 °C	Nc1cc(CC2CCCC2)no1
94 to 96 °C	CCOC(=O)c1nc(-c2ccccc2)oc1CBr
74 to 76 °C	CC(C)(CN)S(=O)(=O)c1ccc(Br)cc1
135 to 137 °C	Cc1cn(-c2cccnc2)nc1N
69 to 71 °C	CNS(=O)(=O)Cc1cc(C)on1
229 to 231 °C	O=C(O)c1cc2c(F)ccc(F)c2[nH]1
214 to 216 °C	COc1c(Cl)cc(Br)cc1S(N)(=O)=O
219 to 221 °C	COc1ccc2nc(Sc3ncccc3C(=O)O)[nH]c2c1
96 to 98 °C	CC1(c2ccsc2)CC(=O)NC1=O (stereo not drawn)
339 to 341 °C	Cc1c(C(=O)O)oc2c(F)cc(F)cc12
78 to 80 °C	COc1cc(SC#N)ccc1O
125 to 127 °C	Cc1nc(C)c(-c2csc(N)n2)s1
142 to 144 °C	O=c1[nH]c2c(s1)CCC2
115 to 119 °C	O=Cc1ccc(OCC(=O)c2ccccc2)cc1
166 to 168 °C	CCOC(=O)c1sc(-c2cccc([N+](=O)[O-])c2)cc1N
66 to 68 °C	CCc1c(C(C)O)oc2ccccc12 (stereo not drawn)
95 to 98 °C	O=C(O)CCSCc1cn2ccccc2n1
375 to 377 °C	O=C(O)c1cc(=O)[nH]c2ccc([N+](=O)[O-])cc12
143 to 145 °C	Nc1ccc(N2CCOCC2)cn1
174 to 176 °C	O=C(O)Cc1ccc(NS(=O)(=O)c2ccc(Cl)c(Cl)c2)cc1
98 to 100 °C	CC(C)(C)c1cc(N)n(-c2ccc(F)cc2)n1
118 to 120 °C	CCC(C)Oc1ccc(C(=O)O)cc1 (stereo not drawn)
